Reference: article PMC5095511 (Journal of nuclear medicine : official publication, Society …, 2016)
pIC50: −log10 of the molar value. Several values for one entry are separate records, joined by “and”; a condition that tells them apart may be missing. Identical values can stand only once. Values belong to the compound of their own block, whether it stands above or below them.

What was measured:
[1] = test system: human sEH; details: read-out: human IC50; cited from earlier work
[2] = Baseline regional brain biodistribution of ^18F-FNDP in CD-1 mice; format: in vivo, mouse (CD-1); details: IV, mean ± SD, n=3
[3] = biological target: T1, sEH (Mus musculus, UniProt P34914); format: in vivo, mouse (CD-1); details: CD-1 mouse brain, high dose of blocker nor-fluoro-FNDP
T1 sequence (P34914 1-554): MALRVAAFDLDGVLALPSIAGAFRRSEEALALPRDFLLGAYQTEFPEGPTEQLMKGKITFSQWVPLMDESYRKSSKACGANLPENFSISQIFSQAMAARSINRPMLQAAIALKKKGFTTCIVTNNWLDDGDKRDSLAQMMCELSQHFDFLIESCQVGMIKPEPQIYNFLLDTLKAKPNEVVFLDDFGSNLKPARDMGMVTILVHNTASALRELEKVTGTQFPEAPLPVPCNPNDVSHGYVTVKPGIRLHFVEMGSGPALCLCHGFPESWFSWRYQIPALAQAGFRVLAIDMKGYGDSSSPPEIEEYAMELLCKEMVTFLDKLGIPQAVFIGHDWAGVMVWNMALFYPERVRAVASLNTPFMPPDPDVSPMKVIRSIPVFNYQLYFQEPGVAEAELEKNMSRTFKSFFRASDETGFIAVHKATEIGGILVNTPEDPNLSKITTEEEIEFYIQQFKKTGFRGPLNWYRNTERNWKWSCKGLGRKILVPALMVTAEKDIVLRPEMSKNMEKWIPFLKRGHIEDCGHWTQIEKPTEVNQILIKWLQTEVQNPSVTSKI

[4] = test system: sEH; format: in vivo, mouse (sEH-KO, C57BL/6); details: baseline
[5] = test system: sEH; test: Dynamic PET imaging of baboon brain, baseline and blocking with nor-fluoro-FNDP; format: in vivo, Papio anubis (baboon)
[6] = Radiometabolite analysis of baboon arterial blood/plasma by RP-HPLC; format: in vivo, Papio anubis (baboon); details: 90 min post-injection

Regional brain uptake, cortex ([2]; 5 min): 4.69 ± 0.21 %ID/g tissue
Regional brain uptake, hippocampus ([2]; 5 min): 3.29 ± 0.54 %ID/g tissue
Regional brain uptake, hypothalamus ([2]; 5 min): 2.59 ± 0.18 %ID/g tissue
Regional brain uptake, rest of brain ([2]; 5 min): 3.53 ± 0.11 %ID/g tissue
Regional brain uptake, striatum ([2]; 5 min): 5.24 ± 0.45 %ID/g tissue
Regional brain uptake, cerebellum ([2]; 15 min): 1.31 ± 1.01 %ID/g tissue
Regional brain uptake, cortex ([2]; 15 min): 2.92 ± 0.36 %ID/g tissue
Regional brain uptake, hippocampus ([2]; 15 min): 2.51 ± 0.34 %ID/g tissue
Regional brain uptake, hypothalamus ([2]; 15 min): 1.66 ± 0.28 %ID/g tissue
Regional brain uptake, rest of brain ([2]; 15 min): 2.37 ± 0.34 %ID/g tissue
Regional brain uptake, striatum ([2]; 15 min): 3.29 ± 0.36 %ID/g tissue
Regional brain uptake, cerebellum ([2]; 30 min): 1.09 ± 0.16 %ID/g tissue
Regional brain uptake, cortex ([2]; 30 min): 2.07 ± 0.05 %ID/g tissue
Regional brain uptake, hippocampus ([2]; 30 min): 1.76 ± 0.15 %ID/g tissue
Regional brain uptake, hypothalamus ([2]; 30 min): 1.04 ± 0.08 %ID/g tissue
Regional brain uptake, rest of brain ([2]; 30 min): 1.64 ± 0.06 %ID/g tissue
Regional brain uptake, striatum ([2]; 30 min): 2.32 ± 0.15 %ID/g tissue
Regional brain uptake, cerebellum ([2]; 60 min): 0.52 ± 0.07 %ID/g tissue
Regional brain uptake, cortex ([2]; 60 min): 0.87 ± 0.14 %ID/g tissue
Regional brain uptake, hippocampus ([2]; 60 min): 0.81 ± 0.15 %ID/g tissue
Regional brain uptake, hypothalamus ([2]; 60 min): 0.51 ± 0.07 %ID/g tissue
Regional brain uptake, rest of brain ([2]; 60 min): 0.71 ± 0.10 %ID/g tissue
Regional brain uptake, striatum ([2]; 60 min): 1.07 ± 0.14 %ID/g tissue
Regional brain uptake, cerebellum ([2]; 90 min): 0.29 ± 0.04 %ID/g tissue
Regional brain uptake, cortex ([2]; 90 min): 0.45 ± 0.05 %ID/g tissue
Regional brain uptake, hippocampus ([2]; 90 min): 0.43 ± 0.06 %ID/g tissue
Regional brain uptake, hypothalamus ([2]; 90 min): 0.31 ± 0.05 %ID/g tissue
Regional brain uptake, rest of brain ([2]; 90 min): 0.38 ± 0.04 %ID/g tissue
Regional brain uptake, striatum ([2]; 90 min): 0.54 ± 0.07 %ID/g tissue
Specific (blocked) binding in striatum, hippocampus and cortex [3]: 90%
Regional uptake in striatum, hippocampus and cortex ([4]; C57BL6 control mice, 60 min post-injection): ~ 1 %ID/g
VT in cerebellum (average) ([5]; baboon, baseline, Logan method): 7.9 ± 1.0
VT in frontal/temporal gyrus and hippocampus ([5]; baboon, baseline, Logan method): > 10.1
VT in globus pallidus, corpus callosum, white matter, hypothalamus and thalamus ([5]; baboon, baseline, Logan method): > 8.1
VT in insula, putamen, caudate and amygdala ([5]; baboon, baseline, Logan method): > 11.5
Remaining parent compound in plasma radioactivity [6]: 20% and ~ 20%
SMILES: O=C(NCCC(c1ccccc1)c1ccccc1)c1ccc([18F])nc1 [^18F-FNDP, N-(3,3-diphenylpropyl)-6-^18F-fluoronicotinamide]
Reduction of uptake in sEH-KO mice as compared with controls ([4]; 60 min after radiotracer injection): ~ 90%
Blockade in all brain regions ([5]; baboon PET): 95%
Specificity of sEH radiolabeling ([5]; both animal species (mouse and baboon)): up to 95%
